Experimental data from patent publication US20150011528A1, “PHENYLIMIDE-CONTAINING BENZOTHIAZOLE DERIVATIVE OF ITS SALT AND PHARMACEUTICAL COMPOSITION COMPRISING THE SAME” (YUHAN CORPORATION, priority 2011, published 2015).

The molecules below were run on A549 cells (assay: Cell Migration Assay (transwell, laminin)). Conditions: Homo sapiens, laminin 10 μg/mL in lower well, test compounds 0.39˜100 μM, 6 hours at 37° C.
Type: cell-based
Procedure: Cell migration was measured with a 24-well transwell having a polycarbonate membrane (8.0 μm pore size, Costar) at the bottom of the upper chamber. Each lower well was treated with laminin (10 μg/mL) and test compounds (0.39˜100 μM) along with a serum-free RPMI1640 medium. A549 cells (Korean Cell Line Bank) were suspended in a serum-free RPMI1640 medium at a concentration of 1×10^6 cells/mL and then the test compounds were added thereto at the indicated concentrations. Each resulting solution (100 μL) was added to the upper chamber. The cells were cultured at 37° C. for 6 hours in a CO2 incubator. The upper chamber was taken out and then the cells were fixed with PBS containing 70% methyl alcohol for 10 minutes, followed by washing with PBS twice. The cells were stained with hematoxylin (Sigma) for 10 minutes and then washed with distilled water. The non-migrated cells were removed from the upper portion of the polycarbonate membrane with a cotton swab. The membranes were excised and separated from the chamber, and then mounted to a slide using a gel mount reagent (Biomeda, USA). The migrated cells (attached to the lower face of the membrane) were counted at three randomly selected sites under a microscope (×20). The cell counting was performed with the Image J program. From the counted cell numbers, each IC50 value was calculated by non-linear regression curve fit using the “GraphPad Prism” program.
The cells are pulled by laminin residing in the lower chamber and then passed through the polycarbonate membrane, so as to attach to the lower face of the membrane.

Structure (SMILES)	IC50 [µM]
CC(C(=O)O)n1c(=NC(=O)c2ccc(C(F)(F)F)cc2)sc2ccccc21 (stereo not drawn) [Example 186, 2-(2-(4-(trifluoromethyl)benzoylimino)benzo[d]thiazol-3(2H)-yl)propionic acid]	101
CCOc1ccc2c(c1)sc(=NC(=O)c1cccc(C(F)(F)F)c1)n2C(C)C(=O)O (stereo not drawn) [Example 192, 2-(6-ethoxy-2-((3-(trifluoromethyl)benzoyl)imino)benzo[d]thiazol-3(2H)-yl)propionic acid]	33
CCC(C(=O)O)n1c(=NC(=O)c2cccc(Br)c2)sc2ccccc21 (stereo not drawn) [Example 83, 2-[2-(3-bromobenzoylimino)benzo[d]thiazol-3(2H)-yl]butanoic acid]	12.3
CCC(C(=O)O)n1c(=NC(=O)c2ccc(C)cc2)sc2ccc(C)cc21 (stereo not drawn) [Example 100, 2-[5-methyl-2-(4-methylbenzoylimino)benzo[d]thiazol-3(2H)-yl]butanoic acid]	43
CCOc1ccc2c(sc(=NC(=O)c3cccc(Cl)c3)n2C(CC)C(=O)O)c1F (stereo not drawn) [Example 427, 2-(2-((3-chlorobenzoyl)imino)-6-ethoxy-7-fluorobenzo[d]thiazol-3(2H)-yl)butanoic acid]	18
CCC(C(=O)O)n1c(=NC(=O)c2ccc(OC)cc2)sc2ccccc21 (stereo not drawn) [Example 60, 2-[2-(4-methoxybenzoylimino)benzo[d]thiazol-3(2H)-yl]butanoic acid]	26.9
CCC(C(=O)O)n1c(=NC(=O)c2cccc(Cl)c2)sc2c(F)c(F)c(F)cc21 (stereo not drawn) [Example 417, 2-(2-((3-chlorobenzoyl)imino)-5,6,7-trifluorobenzo[d]thiazol-3(2H)-yl)butanoic acid]	22
CC(C(=O)O)n1c(=NC(=O)c2cccc(Cl)c2)sc2c(C(F)(F)F)cccc21 (stereo not drawn) [Example 270, 2-(2-(3-chlorobenzoylimino)-7-(trifluoromethyl)benzo[d]thiazol-3(2H)-yl)propionic acid]	1
COc1ccc2c(sc(=NC(=O)c3cccc(Cl)c3)n2CC(=O)O)c1F [Example 396, 2-(2-((3-chlorobenzoyl)imino)-7-fluoro-6-methoxybenzo[d]thiazol-3(2H)-yl)acetic acid]	43
CCC(C(=O)O)n1c(=NC(=O)c2cccc(Cl)c2)sc2cc3c(cc21)OCO3 (stereo not drawn) [Example 240, 2-(6-((3-chlorobenzoyl)imino)-[1,3]dioxolo[4′,5′:4,5]benzo[1,2-d]thiazol-7(6H)-yl)butanoic acid]	16
COc1ccc2c(c1)sc(=NC(=O)c1cccc(Cl)c1)n2C(C)C(=O)O (stereo not drawn) [Example 53, 2-{2-[(3-chlorobenzoyl)imino]-6-methoxybenzo[d]thiazol-3(2H)-yl}propionic acid]	59
CCCCCCC(C(=O)O)n1c(=NC(=O)c2ccc(C)cc2)sc2ccccc21 (stereo not drawn) [Example 147, 2-[2-(4-methylbenzoylimino)benzo[d]thiazol-3(2H)-yl]octanoic acid]	5.7
CCC(C(=O)O)n1c(=NC(=O)c2ccc(C)cc2)sc2cc(OC(F)(F)F)ccc21 (stereo not drawn) [Example 14, 2-{2-[(4-methylbenzoyl)imino]-6-(trifluoromethoxy)benzo[d]thiazol-3(2H)-yl]butanoic acid]	21.5
CC(C(=O)O)n1c2c(sc1=NC(=O)c1cccc(C(F)(F)F)c1)CCCC2 (stereo not drawn) [Example 295, 2-(2-(3-(trifluoromethyl)benzoylimino)-4,5,6,7-tetrahydrobenzo[d]thiazol-3(2H)-yl)propionic acid]	60
O=C(O)Cn1c(=NC(=O)c2cccc(Cl)c2)sc2ccccc21 [Example 123, 2-[2-(3-chlorobenzoylimino)benzo[d]thiazol-3(2H)-yl]acetic acid]	40.1
COc1cccc2sc(=NC(=O)c3cccc(Cl)c3)n(C(C)C(=O)O)c12 (stereo not drawn) [Example 282, 2-(2-(3-chlorobenzoylimino)-4-methoxybenzo[d]thiazol-3(2H)-yl)propionic acid]	25
CCC(C(=O)O)n1c(=NC(=O)c2ccc(C)cc2)sc2ccc(F)cc21 (stereo not drawn) [Example 90, 2-[5-fluoro-2-(4-methylbenzoylimino)benzo[d]thiazol-3(2H)-yl]butanoic acid]	31.6

Other lines, results leading:

IC50 [µM]	Structure (SMILES)
19	CCC(C(=O)O)n1c(=NC(=O)c2ccc(C)cc2)sc2ccc(Cl)cc21 (stereo not drawn) [Example 105, 2-[5-chloro-2-(4-methylbenzoylimino)benzo[d]thiazol-3(2H)-yl]butanoic acid]
43	CCC(C(=O)O)n1c(=NC(=O)c2cccc(Cl)c2)sc2c(F)cc(F)cc21 (stereo not drawn) [Example 462, 2-(2-((3-chlorobenzoyl)imino)-5,7-difluorobenzo[d]thiazol-3(2H)-yl)butanoic acid]
28	Cc1ccc(C(=O)N=c2sc3c(C)cccc3n2C(C)C(=O)O)cc1 (stereo not drawn) [Example 103, 2-[7-methyl-2-(4-methylbenzoylimino)benzo[d]thiazol-3(2H)-yl]propionic acid]
80	Cc1ccc(C(=O)N=c2sc3c(F)cc(F)cc3n2C(C)C(=O)O)cc1 (stereo not drawn) [Example 455, 2-(5,7-difluoro-2-((4-methylbenzoyl)imino)benzo[d]thiazol-3(2H)-yl)propionic acid]
29.4	O=C(O)Cn1c(=NC(=O)c2cccc(Cl)c2)sc2c(Cl)cccc21 [Example 358, 2-(7-chloro-2-((3-chlorobenzoyl)imino)benzo[d]thiazol-3(2H)-yl)acetic acid]
33	Cc1cc2sc(=NC(=O)c3cccc(Cl)c3)n(C(C)C(=O)O)c2cc1C (stereo not drawn) [Example 212, 2-(2-((3-chlorobenzoyl)imino)-5,6-dimethylbenzo[d]thiazol-3(2H)-yl)propionic acid]
46	Cc1cccc2c1sc(=NC(=O)c1cccc(C(F)(F)F)c1)n2C(C)C(=O)O (stereo not drawn) [Example 314, 2-(7-methyl-2-(3-(trifluoromethyl)benzoylimino)benzo[d]thiazol-3(2H)-yl)propionic acid]
19	CCC(C(=O)O)n1c(=NC(=O)c2ccc(F)c(Cl)c2)sc2cc(F)c(F)cc21 (stereo not drawn) [Example 467, 2-(2-((3-chloro-4-fluorobenzoyl)imino)-5,6-difluorobenzo[d]thiazol-3(2H)-yl)butanoic acid]
36.2	CC(C(=O)O)n1c(=NC(=O)c2cccc(C(F)(F)F)c2)sc2c(F)c(F)c(F)cc21 (stereo not drawn) [Example 380, 2-(5,6,7-trifluoro-2-((3-(trifluoromethyl)benzoyl)imino)benzo[d]thiazol-3(2H)-yl)propionic acid]
23.7	CCC(C(=O)O)n1c(=NC(=O)c2ccc(C)cc2)sc2cc([N+](=O)[O-])ccc21 (stereo not drawn) [Example 23, 2-{2-[(4-methylbenzoyl)imino]-6-nitrobenzo[d]thiazol-3(2H)-yl}butanoic acid]
11.8	CCC(C(=O)O)n1c(=NC(=O)c2ccc(C)cc2)sc2cc(C)c(F)cc21 (stereo not drawn) [Example 16, 2-{5-fluoro-6-methyl-2-[(4-methylbenzoyl)imino]benzo[d]thiazol-3(2H)-yl}butanoic acid]
124	CC(C(=O)O)n1c(=NC(=O)c2cccc(C(F)(F)F)c2)sc2c(F)cccc21 (stereo not drawn) [Example 346, 2-(7-fluoro-2-((3-(trifluoromethyl)benzoyl)imino)benzo[d]thiazol-3(2H)-yl)propionic acid]
92.4	CC(C(=O)O)n1c(=NC(=O)c2cccc(Cl)c2)sc2c(F)cccc21 (stereo not drawn) [Example 373, 2-(2-((3-chlorobenzoyl)imino)-7-fluorobenzo[d]thiazol-3(2H)-yl)propionic acid]
109	O=C(O)Cn1c(=NC(=O)c2cccc(Cl)c2)sc2c(F)cccc21 [Example 347, 2-(2-((3-chlorobenzoyl)imino)-7-fluorobenzo[d]thiazol-3(2H)-yl)acetic acid]
49	CC(C(=O)O)n1c(=NC(=O)c2ccc(F)c(Cl)c2)sc2cc(F)c(F)cc21 (stereo not drawn) [Example 466, 2-(2-((3-chloro-4-fluorobenzoyl)imino)-5,6-difluorobenzo[d]thiazol-3(2H)-yl)propionic acid]
26.5	CCC(C(=O)O)n1c(=NC(=O)c2ccc(C)cc2)sc2cc(C)c(C)cc21 (stereo not drawn) [Example 6, 2-{5,6-dimethyl-2-[(4-methylbenzoyl)imino]benzo[d]thiazol-3(2H)-yl}butanoic acid]
16.5	CCC(C(=O)O)n1c(=NC(=O)c2cccc(Cl)c2)sc2cc(C(F)(F)F)ccc21 (stereo not drawn) [Example 173, 2-(2-((3-chlorobenzoyl)imino)-6-(trifluoromethyl)benzo[d]thiazol-3(2H)-yl)butanoic acid]
31.1	CCC(C(=O)O)n1c(=NC(=O)c2ccc(C)cc2)sc2cc(F)ccc21 (stereo not drawn) [Example 153, 2-[6-fluoro-2-(4-methylbenzoylimino)benzo[d]thiazol-3(2H)-yl]butanoic acid]
87	COc1ccc2c(c1)sc(=NC(=O)c1cccc(C(F)(F)F)c1)n2C(C)C(=O)O (stereo not drawn) [Example 189, 2-(6-methoxy-2-((3-(trifluoromethyl)benzoyl)imino)benzo[d]thiazol-3(2H)-yl)propionic acid]

Same assay, conditions: laminin 10 μg/mL in lower well, test compounds 0.39˜100 μM, 6 hours at 37° C.

IC50 [µM]	Structure (SMILES)
32	CCC(C(=O)O)n1c(=NC(=O)c2ccc(F)c(C(F)(F)F)c2)sc2cc(F)c(F)cc21 (stereo not drawn) [Example 471]
66	CCC(C(=O)O)n1c(=NC(=O)c2cc(F)cc(C(F)(F)F)c2)sc2cc(F)c(F)cc21 (stereo not drawn) [Example 469]

Structure (SMILES)	IC50 [µM]
Cc1ccc(C(=O)N=c2sc3ccccc3n2C(C(=O)O)c2ccccc2)cc1 (stereo not drawn) [Example 152]	22.7
